# Laboratory results: patent US10106540B2, “HDAC6 inhibitors and their uses” (Universität Regensburg, priority 2014, dated 2018)
# Key:
# PRXF DU-145 = test: In vitro activity against solid tumor cell lines (FACS analysis method a); type: cell-based; settings: Homo sapiens, Prostate
# Description: (§1) Human prostate cancer cell lines PRXF DU-145, PRXF LNCaP, PRXF PC-3M (Oncotest GmbH, Freiburg, Germany)
# (§2) The assay is carried out as described in Pietschmann et al., 2012 and Brandl et al. 2012. Briefly, 10^5 cells were fixed in 1 ml 70% EtOH with 0.05% Tween-20 overnight at 4° C. The following day, cells were washed with 3 ml 38 mM sodium citrate, pH 7.4, and incubated for 20 min at 37° C. in 0.5 ml 38 mM sodium citrate, pH 7.4, supplemented with 50 μg/ml propidium iodide and 10 μg/ml RNase-A. DNA contents of the cells were measured by fluorescence-activated cell sorter (FACS). This method allows detection of the apoptotic subG1-fraction, which has a DNA content below 2n due to apoptotic cleavage of DNA. Equally, the cell cycle profile can be assessed with this method.
# (§3) The novel HDAC6 inhibitors were tested in a panel of tumor cell lines for cytostatic/toxic activities (see Table 2).
# PRXF LNCaP = test: as above; type: cell-based; settings: Homo sapiens, Prostate
# Description: as §1, §2, §3
# PRXF PC-3M = test: as above; type: cell-based; settings: Homo sapiens, Prostate
# Description: as §1, §2, §3
# HEL leukemic cells = test: Western blot analysis in HEL leukemic cells (JAK2 V617F); type: cell-based, human; settings: 24 h, Western blot
# Description: Human leukemia cell line HEL with JAK2 V617F mutation (DSMZ Accession No: ACC-11).
# The assay is carried out as described in Buchwald et al. 2010 and Buchwald et al. 2013. Briefly, cells were collected and lysed in NET-N buffer (150 mM NaCl, 1 mM EDTA, 50 mM Tris-HCl (pH 7.8), 0.5% Nonidet P-40 (NP-40), 1 mM phenylmethylsulfonyl fluoride, 0.5 mg/ml leupeptin and 0.5 mg/ml pepstatin) followed by mild sonification on ice. Protein lysate ([…]) was boiled in Laemmli buffer and separated on SDS-polyacrylamide gel electrophoresis for western blotting with specific antibodies. All lysates were assessed by Bradford assay for protein concentrations.
# HCT-116 cells = test: Western blot analysis in HCT-116 colon cancer cells; type: cell-based, human
# Description: FIG. 5. Various cancer cells were treated for 24 h as shown and tested by Western blot analysis. […] Human colon cancer cell lines RKO (ATCC Accession No: CRL-2577) and HCT-116 (DSMZ Accession No: ACC-581). Western Blot Analysis a […] Protein lysate ([…]) was boiled in Laemmli buffer and separated on SDS-polyacrylamide gel electrophoresis for western blotting with specific antibodies. All lysates were assessed by Bradford assay for protein concentrations.
# nuclear proteins = test: Nuclear extracts versus cytoplasm after MARB1 stimulation, Western blot; type: cell-based
# Description: Nuclear extracts were generated and compared to the cytoplasm by western blotting. 6 Mio cells were seeded on a 10 cm dish and incubated 2 h in the medium for adaption. SAHA and […] are pan-HDACi. HSP90 was used as a loading control for the cytoplasm. n=2
# SDS-PAGE and Western Blot Analysis Method b
# Western Blot analysis method b was used for the blots illustrated in FIGS. 6 to 9 and 11: Equal amounts of proteins were separated with a sodium dodecyl sulfate-polyacrylamide gel electrophoresis (SDS-PAGE) using an electrophoresis buffer by Laemmli with 1% SDS. The proteins were transferred to a nitrocellulose membrane by western blotting using a wet blot chamber. The blots were incubated with the primary antibody, after blocking the membrane for 1 h in 5% non-fat dry milk in tris-buffered saline (TBS) containing 0.05% Tween-20. Fluorescence coupled secondary antibodies (LI-COR) were used and the signal was measured on the Odyssey to detect the proteins.
# The cells for nuclear extracts were harvested on ice after stimulation and washed with cold PBS. The pellet was resuspended in lysis buffer A (10 mM HEPES pH 7.9, 1.5 mM MgCl2, 10 mM KCl, 1 mM DTT and protease and phosphatase inhibitor) and incubated for 15 min on ice followed by addition of NP-40 to a final concentration of 1%. […] The protein level was assessed by Bradford assay (Goder et al. 2015).
# HEK293T cells = test: HDAC6 overexpression model in HEK293T cells, Western blot; type: cell-based, human; settings: 500 nM MARB1, 48 h
# Description: However, it is mention worth that MARB1 increases the amount of acetylated tubulin in cells with HDAC6 overexpression. 400,000 cells were seeded on a 6 well plate and incubated for 24 h for adapting and the transfection was allowed for 48 h. […] HSP90 and Tubulin were used as loading control. The cells were collected on ice using Trypsin/EDTA. The overexpression was identified by using the HDAC6 antibody described in Antibodies and Plasmids. n=3 (B) The cells were transfected as described previously and collected under sterile conditions using Trypsin/EDTA. Cells were centrifuged and resuspended in new DMEM with FBS and pen/strep. The cells were splitted 1:2 and seeded per sample into two wells. After 24 h adhesion time cells were stimulated with MARB1 for 48 h. Thereafter cells were collected on ice using Trypsin/EDTA and prepared for SDS-PAGE. […] The samples were generated as described previously. HSP90 was used as loading control. n=1 […]
# Western Blot analysis method b was used for the blots illustrated in FIGS. 6 to 9 and 11: Equal amounts of proteins were separated with a sodium dodecyl sulfate-polyacrylamide gel electrophoresis (SDS-PAGE) using an electrophoresis buffer by Laemmli with 1% SDS. […] Fluorescence coupled secondary antibodies (LI-COR) were used and the signal was measured on the Odyssey to detect the proteins. […]
smiles,measurement,setting,value
"CN1C(=O)C2CN(Cc3c2c2ccccc2n3Cc2ccc(C(=O)NO)cc2)C1=O (centres unmarked) [MARB1, N-Hydroxy-4-((4-methyl-3,5-dioxo-3,4,5,6-tetrahydro-2,6-methano[1,3]diazocino[5,6-b]indol-11(1H)-yl)methyl)benzamide]",IC50,PRXF DU-145,2340 nM
same,IC50,PRXF LNCaP,1620 nM
same,IC50,PRXF PC-3M,5140 nM
same,concentration with about the same potency in hyperacetylation of tubulin-α,HEL leukemic cells,~1000 nM
same,tubulin acetylation and degradation,"HCT-116 cells; 1 μM, 24 h (FIG. 5B)",triggers the hyperacetylation of tubulin without causing its degradation
same,tubulin acetylation and degradation,"HCT-116 cells; HCT-116 cells, 24 h",starts the hyperacetylation of tubulin in colon carcinoma cells (RKO and HCT-116 cells) without destroying it
same,effects on nuclear proteins,nuclear proteins,no detectable effects
same,tubulin acetylation in HDAC6 flag transfected cells,HEK293T cells,high induction of tubulin acetylation
